≈ marks a conversion by molar mass, not a printed value. Read-outs that look alike come from different tables or passages of the source.
Legend:
[1] = tested on: Schistosoma japonicum; assay: Effect in mice infected with Schistosoma japonicum; assay type: in vivo; conditions: age of worm 35 days, 400 mg/kg x 1
[2] = tested on: chloroquine-sensitive NF54 strain of P. falciparum; assay: In vitro antimalarial semiautomated microdilution assay ([3H]-hypoxanthine incorporation), NF54 strain; assay type: cell-based, Plasmodium falciparum; conditions: Plasmodium falciparum, read-out: IC50 (ng/ml) NF54
Outline: (§1)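 Logit regression analysis yields the fifty percent inhibitory concentration. Compounds are tested by semiautomated microdilution on intraerythrocytic parasites drawn from asynchronous stock cultures, measuring [3H]-hypoxanthine incorporation.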

[3] = tested on: ANKA strain of P. berghei; assay: Single dose STI in vivo screen in infected mice; set-up: species or system Plasmodium berghei; conditions: for Survival (days) 3 mg/kg SSV po / Activity (%) 3 mg/kg SSV po: single 3 mg/kg po in SSV; for Activity (%) 3 mg/kg SSV po / Activity (%) 10 mg/kg SSV po: percent reduction in parasitemia on day 3; for Survival (days) 10 mg/kg SSV po: single 10 mg/kg po in SSV, untreated 6-7 days; for Activity (%) 10 mg/kg SSV po: single 10 mg/kg po in standard suspending vehicle (SSV) on day 1 post-infection
[4] = tested on: ANKA strain of Plasmodium berghei; assay: Single dose ED50/ED90/ED99 determination in infected mice; assay type: in vivo
Outline: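 Moro SPF or NMRI mice (three per group) infected with P. berghei ANKA were dosed once on day 1 post-infection in SSV (0.5% CMC, 0.5% benzyl alcohol, 0.4% Tween 80, 0.9% NaCl). Parasitemia reduction was scored on day 3; ED values (mg/kg) came from nonlinear fitting.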

[5] = tested on: P. berghei ANKA strain; assay: Prophylactic activity, single 100 mg/kg po at various times before infection; assay type: in vivo, Plasmodium berghei; conditions: for Prophylactic Activity (%) 24 h: single 100 mg/kg po 24 h before infection; for Prophylactic Activity (%) 0 h: single 100 mg/kg po at 0 h
Experimental: (§2) Moro NMRI male mice (Fu Albino specific pathogen free) weighing 18±2 g were infected intravenously (i.v.) with 2×10^7 P. berghei ANKA strain-infected erythrocytes from donor mice on day 0 of the experiment. From donor mice with circa 30% parasitemia, heparinized blood was taken and diluted in physiological saline to 10^8 parasitized erythrocytes per ml. An aliquot (0.2 ml) of this suspension was injected i.v. into experimental and control groups of mice. […] Throughout the experiments, mice were kept in groups of three or five animals in Makrolon type II cages in an air-conditioned animal room at 22 to 23° C.
Prophylactic activities of the compounds were compared after administering po single dose of 100 mg/kg to different groups of five animals at various times before infection. All groups including an untreated control group, were then infected at the same time. Parasitemia was determined for each animal on day 3 post-infection, and percent of reduction of the level of parasitemia compared to levels for animals given no drug is determined.

[6] = tested on: chloroquine-resistant K1 strain of P. falciparum; assay: In vitro antimalarial semiautomated microdilution assay ([3H]-hypoxanthine incorporation), K1 strain; assay type: cell-based, Plasmodium falciparum; conditions: Plasmodium falciparum, read-out: IC50 (ng/ml) K1
Outline: as §1

[7] = tested on: Schistosoma mansoni 21-day-old schistosomules; assay: Effect on 21-day-old schistosomules in infected mice; assay type: in vivo; conditions: po, 200 mg/kg, 504 h
Experimental: Mice were infected with 100 Schistosoma mansoni cercariae on day 21 post-treatment. Each group was treated per os with trioxolanes at a single dose of 200 mg/kg. […] All groups were killed 4 weeks after treatment and the liver and intestine were removed and separated. The liver and intestine were compressed and alive male and female worms could be seen and counted. The effect of the compounds was evaluated by mean total and female worm burden.

[8] = tested on: Schistosoma mansoni adult worms (49-day-old); assay: Effect on adult schistosomes (49-day-old) in infected mice; assay type: in vivo; conditions: po, 400 mg/kg, 1176 h
Experimental: Mice were infected with 100 Schistosoma mansoni cercariae on day 49 post-treatment. Each group was treated per os with OZ compounds at single doses of 200, 400, and 600 mg/kg. Untreated mice served as the control. All groups were killed 4 weeks after treatment and the liver and intestine were removed and separated. The liver and intestine were compressed and alive male and female worms could be seen and counted.

[9] = tested on: P. berghei ANKA strain; assay: Divided 3x3 mg/kg and 3x1 mg/kg po doses in infected mice; assay type: in vivo, Plasmodium berghei
Outline: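 Male NMRI mice were infected i.v. with 2×10^7 P. berghei-parasitized erythrocytes on day 0, then dosed orally in SSV vehicle on days 1, 2 and 3 post-infection.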

[10] = tested on: P. berghei ANKA strain; assay: Onset of action and recrudescence experiment, single 100 mg/kg po; assay type: in vivo, Plasmodium berghei; conditions: single 100 mg/kg po (SSV) on day +3 post-infection; recrudescence = >5% parasitemia; followed up to 60 days; groups of five
Experimental: The onset of drug action was determined after a single fixed dose of 100 mg/kg (SSV vehicle) po to groups of five animals on day +3 post-infection (day 0).
as §2

[11] = tested on: P. berghei ANKA strain; assay: Divided 3x10 mg/kg vs single 1x30 mg/kg po dose in infected mice; assay type: in vivo, Plasmodium berghei; conditions: for Cures 3 × 10 mg/kg p.o. SSV: 10 mg/kg po on days 1, 2, 3; for Cures 3 × 10 mg/kg p.o. SSV / Cures 1 × 30 mg/kg p.o. SSV: cure = survival to day 30 post-infection; for Cures 1 × 30 mg/kg p.o. SSV: single 30 mg/kg po
Experimental: as §2
They were administered per os (p.o.) in a total volume of 0.01 ml per gram of mouse. The activity of the compound was determined by a variety of methods outlined in subsequent sections. Survival time was also recorded, and survival to day 30 post-infection was considered to be a cure.
The first experiment conducted consisted of administration of a divided 3×10 mg/kg p.o. dose administered on days 1, 2, and 3 post-infection vs. a single 1×30 mg/kg po dose administered on day 1 post-infection. On day 4 post-infection, blood smears of all animals were prepared and stained with Giemsa. […] Compounds were administered orally in the SSV vehicle.

[12] = single dose po in SSV on day 1 post-infection, parasitemia day 3, nonlinear fitting
[13] = parasitemia reduction on day 3 post-infection
[14] = 3 × 1 mg/kg p.o. SSV on days 1, 2, 3 post-infection
[15] = 3 × 3 mg/kg p.o. SSV on days 1, 2, 3 post-infection
[16] = 3 × 3 mg/kg p.o. SSV on days 1, 2, 3 post-infection, percent reduction of parasitemia vs control on day 4
[17] = 10 mg/kg po on days 1, 2, 3 post-infection
[18] = single 30 mg/kg po on day 1 post-infection

Row | SMILES | Survival (days) 3 mg/kg SSV po [3] | Activity (%) 3 mg/kg SSV po [3] | Survival (days) 10 mg/kg SSV po [3] | Activity (%) 10 mg/kg SSV po [3] | ED99 [4, 12] | Prophylactic Activity (%) 24 h [5, 13] | Prophylactic Activity (%) 0 h [5, 13] | Survival [9, 14] | Survival [9, 15] | Activity (%) [9, 16] | Time of Recrudescence [10] | Cures 3 × 10 mg/kg p.o. SSV [11] | Survival (days) 3 × 10 mg/kg p.o. SSV [11, 17] | Survival (days) 1 × 30 mg/kg p.o. SSV [11, 18] | Cures 1 × 30 mg/kg p.o. SSV [11] | other results
1 | CO[C@H]1O[C@@H]2O[C@@]3(C)CC[C@H]4[C@H](C)CC[C@@H]([C@H]1C)[C@@]24OO3 [AM, artemether, reference compound] | 8.7 days | 79% | 9.4 days | 99.75% | 7.1 mg/kg | 0% | 100% | 7.2 days | 9.4 days | 86% | 12.0 days |  |  |  |  | Mice without female worm [1]: 0/7; MFWB (mean female worm burden) x ± SD ([1]; control 11.6 ± 2.4): 3.4 ± 1.6; MTWB (mean total worm burden) x ± SD ([1]; control 26.6 ± 4.2): 10.1 ± 4.4; IC50 ([2]; chloroquine-sensitive NF54 strain, 72 h incubation): 0.36 ng/mL (≈ 1.21 nM); ED50 ([4]; Plasmodium berghei, single dose po in SSV on day 1 post-infection, parasitemia day 3, nonlinear fitting, read-out: ED50): 2.2 mg/kg; ED90 ([4]; po): 4.2 mg/kg; IC50 ([6]; chloroquine-resistant K1 strain, 72 h incubation): 0.45 ng/mL (≈ 1.51 nM); % reduction of schistosomule growth at day 21 after per os application of 200 mg/kg, FWR (%) [7]: (n2) 78%; % reduction of schistosomule growth at day 21 after per os application of 200 mg/kg, TWR (%) [7]: (n2) 81%; % reduction of adult worms growth at day 49 after per os application of 400 mg/kg, TWR (%) [8]: 53%; Adult worms day 49, per os 400 mg/kg, DEAD WORM (%) [8]: 29%; Activity (%) ([9]; po, 1 mg/kg, 96 h): 51%; Cures ([9]; po, 3 mg/kg, 720 h): 0\5
2 | CCN(CC)CCCC(C)Nc1ccnc2cc(Cl)ccc12 (stereo not shown) [CQ, chloroquine, reference compound] | 8.0 days |  | 9.0 days |  | 5.9 mg/kg |  |  | 7.2 days | 10 days |  | 17.8 days | 0/5 | 14.3 days | 9.5 days | 0/5 | IC50 ([2]; NF54, 72 h): 4.4 ng/mL (≈ 13.8 nM); IC50 ([6]; K1, 72 h): 76 ng/mL (≈ 238 nM)
3 | OC(c1cc(C(F)(F)F)nc2c(C(F)(F)F)cccc12)C1CCCCN1 (stereo not shown) [MFQ, mefloquine, reference compound] |  | 9% | 17 days | 99.11% | 6.8 mg/kg | 100% | 100% | 6.2 days | 12 days | 98% | 28.0 days | 0/5 | 23.3 days | 20.3 days | 0/5 | ED50 [4, 12]: 4.0 mg/kg; ED90 [4, 12]: 5.4 mg/kg; Duration of prophylactic protection ([5]; single 100 mg/kg po): 3 days; Prophylactic Activity (%) 48 h ([5]; single 100 mg/kg po 48 h before infection, parasitemia reduction on day 3 post-infection): 99.92%; Prophylactic Activity (%) 72 h ([5]; single 100 mg/kg po 72 h before infection, parasitemia reduction on day 3 post-infection): 99.97%; Activity (%) 3 × 10 mg/kg p.o. SSV ([11]; 10 mg/kg po on days 1, 2, 3 post-infection, parasitemia reduction on day 4): 99.92%; Activity (%) 1 × 30 mg/kg p.o. SSV ([11]; single 30 mg/kg po on day 1 post-infection, parasitemia reduction on day 4): 99.94%; Activity (%) ([9]; 3 × 1 mg/kg p.o. SSV on days 1, 2, 3 post-infection, percent reduction of parasitemia vs control on day 4): 2%

— patent US6825230B2, “Spiro and dispiro 1,2,4-trixolane antimalarials” (Medicines for Malaria Venture MMV, priority 2002, dated 2004)
